Measured values published in patent US20250034173A1, “PYRIDO[4,3-D]PYRIMIDINE COMPOUNDS” (PFIZER INC., priority 2023, published 2025).

Columns and labels:
[1] = target: T1, KRAS Wild Type (Homo sapiens (Human), UniProt P01116); experiment: SPR binding affinity and kinetics, GDP-loaded KRAS Wild Type; settings: GDP loaded protein, geomean
From the text: (§1) No additional regeneration was used.
(§2) Compound dissociation was monitored for at least 3600 seconds. […] No additional regeneration was used.
(§3) The adequateness of the fit was judged by c2 values and the randomness of residue distribution.

[2] = target: T2, KRAS G12D (Homo sapiens (Human), UniProt P01116, G12D); experiment: SPR binding affinity and kinetics, GDP-loaded KRAS G12D; settings: GDP loaded protein, geomean
T2 sequence (P01116 other isoform, or with tags, fused parts or gaps G12D): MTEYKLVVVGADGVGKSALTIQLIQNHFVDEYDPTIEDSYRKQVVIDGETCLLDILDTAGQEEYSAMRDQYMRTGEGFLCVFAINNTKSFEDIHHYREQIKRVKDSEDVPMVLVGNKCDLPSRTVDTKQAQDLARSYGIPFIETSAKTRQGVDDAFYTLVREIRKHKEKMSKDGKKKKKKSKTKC
From the text: as §1, §2, §3

[3] = target: T3, KRAS G12C (Homo sapiens (Human), UniProt P01116, G12C); experiment: SPR binding affinity and kinetics, GDP-loaded KRAS G12C; settings: GDP loaded protein, geomean
T3 sequence (P01116 other isoform, or with tags, fused parts or gaps G12C): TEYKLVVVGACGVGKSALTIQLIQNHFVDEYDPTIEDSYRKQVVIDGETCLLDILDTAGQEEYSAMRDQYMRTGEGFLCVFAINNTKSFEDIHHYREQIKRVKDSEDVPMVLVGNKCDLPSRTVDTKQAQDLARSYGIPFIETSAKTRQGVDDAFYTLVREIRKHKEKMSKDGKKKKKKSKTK
From the text: as §1, §2, §3

[4] = target: T4, KRAS G12V (Homo sapiens (Human), UniProt P01116, G12V); experiment: SPR binding affinity and kinetics, GDP-loaded KRAS G12V; settings: GDP loaded protein, geomean
T4 sequence (P01116 other isoform, or with tags, fused parts or gaps G12V): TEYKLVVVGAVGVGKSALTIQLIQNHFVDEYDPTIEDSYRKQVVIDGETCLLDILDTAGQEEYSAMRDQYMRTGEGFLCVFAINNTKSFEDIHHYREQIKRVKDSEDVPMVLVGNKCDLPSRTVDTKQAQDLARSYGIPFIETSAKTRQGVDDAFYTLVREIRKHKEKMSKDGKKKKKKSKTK
From the text: as §1, §2, §3

[5] = target: T1, KRAS Wild Type; experiment: SPR binding affinity and kinetics, GTPγS-loaded KRAS Wild Type; settings: GTPγS loaded protein, geomean
Outline: (§4)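 Kinetic and affinity values come from fitted SPR sensorgrams, the fit accepted on c2 values and randomly distributed residues. Dissociation was followed for at least 3600 seconds without any additional regeneration.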

[6] = target: T2, KRAS G12D; experiment: SPR binding affinity and kinetics, GTPγS-loaded KRAS G12D; settings: GTPγS loaded protein, geomean
Outline: as §4

[7] = target: T3, KRAS G12C; experiment: SPR binding affinity and kinetics, GTPγS-loaded KRAS G12C; settings: GTPγS loaded protein, geomean
Outline: as §4

[8] = target: T4, KRAS G12V; experiment: SPR binding affinity and kinetics, GTPγS-loaded KRAS G12V; settings: GTPγS loaded protein, geomean
Outline: as §4

[9] = target: HRAS Wild Type (Homo sapiens (Human), UniProt P01112); experiment: SPR binding affinity and kinetics, GTPγS-loaded HRAS Wild Type; settings: GTPγS loaded protein, geomean
Sequence of HRAS Wild Type (P01112 2-184): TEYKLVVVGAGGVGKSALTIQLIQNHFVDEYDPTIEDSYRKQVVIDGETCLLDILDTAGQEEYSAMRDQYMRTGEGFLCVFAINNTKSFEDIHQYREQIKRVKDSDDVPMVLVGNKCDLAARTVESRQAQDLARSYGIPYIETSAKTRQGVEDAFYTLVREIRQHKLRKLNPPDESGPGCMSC
Outline: as §4

[10] = target: NRAS Wild Type (Homo sapiens (Human), UniProt P01111); experiment: SPR binding affinity and kinetics, GTPγS-loaded NRAS Wild Type; settings: GTPγS loaded protein, geomean
Sequence of NRAS Wild Type (P01111 2-185): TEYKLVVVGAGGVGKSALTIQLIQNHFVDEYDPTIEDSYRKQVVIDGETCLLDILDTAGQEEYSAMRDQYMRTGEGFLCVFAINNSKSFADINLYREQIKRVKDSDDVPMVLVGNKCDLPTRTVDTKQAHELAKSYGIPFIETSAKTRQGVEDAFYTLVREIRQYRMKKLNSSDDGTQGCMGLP
Outline: as §4

[11] = system: H358 (non-small cell lung cancer cell line); experiment: KRAS Cell Titer Glo (CTG) cell proliferation assay, H358; type: cell-based; settings: Homo sapiens, NCI-H358, 168 h; H358 cells, 7-day CTG, geomean IC50
Outline: (§5)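 Compounds pre-dispensed in 0.1% DMSO before seeding H358 (300 cells/well), SW620 (750) or PANC08.13 (600); 7-day exposure at 37 °C, 5% CO2. Viability by CellTiter-Glo luminescence after 15 min at room temperature. Percent effect normalised to DMSO (0%) and 1 uM trametinib (100%); geomean IC50.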

[12] = system: SW620 (colorectal cancer cell line); experiment: KRAS Cell Titer Glo (CTG) cell proliferation assay, SW620; type: cell-based; settings: Homo sapiens, SW-620, 168 h; SW620 cells, 7-day CTG, geomean IC50
Outline: as §5

[13] = system: PANC08.13 (pancreatic cancer cell line); experiment: KRAS Cell Titer Glo (CTG) cell proliferation assay, PANC08.13; type: cell-based; settings: Homo sapiens, PANC-08-13, 168 h; PANC08.13 cells, 7-day CTG, geomean IC50
Outline: as §5

T1 sequence (P01116 other isoform, or with tags, fused parts or gaps): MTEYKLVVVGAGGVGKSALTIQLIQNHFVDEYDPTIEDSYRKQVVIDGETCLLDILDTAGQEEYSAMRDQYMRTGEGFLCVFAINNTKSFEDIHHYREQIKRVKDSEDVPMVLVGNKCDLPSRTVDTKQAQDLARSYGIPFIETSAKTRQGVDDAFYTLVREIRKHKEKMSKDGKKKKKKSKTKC

`Fc1c(-c2c(C3CC3)c(Cl)cc3[nH]ncc23)nc2c3c(nc(OC[C@@]45CCCN4C[C@H](F)C5)nc13)N1CCCOC[C@H]1CO2` [Example 1, (8aS)-5-(6-chloro-5-cyclopropyl-1H-indazol-4-yl)-4-fluoro-2-{[(2R,7aS)-2-fluorotetrahydro-1H-pyrrolizin-7a(5H)-yl]methoxy}-8a,9,12,13-tetrahydro-8H,11H-7,10-dioxa-1,3,6,13a-tetraazanaphtho[1,8-ab]heptalene] was tested, and the Kd [1] was 0.038 nM, the Kd [2] was 0.048 nM and the Kd [3] was 0.031 nM. It also gave a Kd [4] of 0.105 nM, a Kd [5] of 14 nM and a Kd [6] of 10 nM. The Kd [7] was 12 nM, the Kd [8] was 8 nM and the Kd [9] was > 10000 nM. For the same compound, the Kd [10] was > 10000 nM, the IC50 [11] was 73 nM and the IC50 [12] was 83 nM. The IC50 [13] was 7 nM.
`C=C1CN2CCC[C@@]2(COc2nc3c4c(nc(-c5c(C(F)(F)F)ccc6[nH]ncc56)c(F)c4n2)OC[C@@H]2COCCCN32)C1` [Example 12, (8aS)-4-fluoro-2-{[(7aS)-2-methylidenetetrahydro-1H-pyrrolizin-7a(5H)-yl]methoxy}-5-[5-(trifluoromethyl)-1H-indazol-4-yl]-8a,9,12,13-tetrahydro-8H,11H-7,10-dioxa-1,3,6,13a-tetraazanaphtho[1,8-ab]heptalene] was tested, and the Kd [1] was 0.257 nM, the Kd [2] was 0.116 nM and the Kd [3] was 0.122 nM. For the same compound, the Kd [4] was 0.106 nM, the Kd [5] was 95 nM and the Kd [6] was 42 nM. For the same compound, the Kd [7] was 84 nM, the Kd [8] was 62 nM and the IC50 [11] was 211 nM. It also gave an IC50 [12] of 463 nM and an IC50 [13] of 35 nM.
`C=C1CN2CCC[C@@]2(COc2nc3c4c(nc(-c5c(C6CC6)c(Cl)cc6[nH]ncc56)c(F)c4n2)OC[C@@H]2COCCCN32)C1` [Example 2, (8aS)-5-(6-chloro-5-cyclopropyl-1H-indazol-4-yl)-4-fluoro-2-{[(7aS)-2-methylidenetetrahydro-1H-pyrrolizin-7a(5H)-yl]methoxy}-8a,9,12,13-tetrahydro-8H,11H-7,10-dioxa-1,3,6,13a-tetraazanaphtho[1,8-ab]heptalene] was tested, and the Kd [1] was 0.004 nM, the Kd [2] was 0.041 nM and the Kd [3] was 0.019 nM. The Kd [4] was 0.144 nM, the Kd [5] was 5 nM and the Kd [6] was 1 nM. For the same compound, the Kd [7] was 5 nM, the Kd [8] was 4 nM and the Kd [9] was > 10000 nM. For the same compound, the Kd [10] was > 10000 nM, the IC50 [11] was 10 nM and the IC50 [12] was 14 nM. For the same compound, the IC50 [13] was < 2 nM.
With `C=C1CN2CCC[C@@]2(COc2nc3c4c(nc(-c5c(C(F)F)ccc6[nH]ncc56)c(F)c4n2)OC[C@@H]2COCCCN32)C1` [Example 10, (8aS)-5-[5-(difluoromethyl)-1H-indazol-4-yl]-4-fluoro-2-{[(7aS)-2-methylidenetetrahydro-1H-pyrrolizin-7a(5H)-yl]methoxy}-8a,9,12,13-tetrahydro-8H,11H-7,10-dioxa-1,3,6,13a-tetraazanaphtho[1,8-ab]heptalene] the Kd [1] was 8.03 nM, the Kd [2] was 2.07 nM and the Kd [3] was 1.81 nM. It also gave a Kd [4] of 3.9 nM, a Kd [5] of 2880 nM and a Kd [6] of 2550 nM. For the same compound, the Kd [7] was 3230 nM, the Kd [8] was 2820 nM and the IC50 [11] was 4540 nM. It also gave an IC50 [12] of 9530 nM and an IC50 [13] of 475 nM.
With `Fc1c(-c2c(Cl)c(Cl)cc3[nH]ncc23)nc2c3c(nc(OC[C@@]45CCCN4C[C@H](F)C5)nc13)N1CCCC[C@H]1CO2` [Example 4, (8aS)-5-(5,6-dichloro-1H-indazol-4-yl)-4-fluoro-2-{[(2R,7aS)-2-fluorotetrahydro-1H-pyrrolizin-7a(5H)-yl]methoxy}-8,8a,9,10,11,12-hexahydro-7-oxa-1,3,6,12a-tetraazabenzo[4,5]cyclohepta[1,2,3-de]naphthalene] the Kd [1] was 7.72 nM, the Kd [2] was 1.36 nM and the Kd [3] was 4.29 nM. It also gave a Kd [4] of 2.6 nM, a Kd [5] of 2290 nM and a Kd [6] of 2030 nM. For the same compound, the Kd [7] was 2270 nM, the Kd [8] was 1590 nM and the IC50 [11] was 534 nM. The IC50 [12] was 3380 nM and the IC50 [13] was 299 nM.
